# “Also recorded” adds a separate entry of the source.
# How the values were obtained:
# Type in all cases: in vivo, zebrafish
# pMEK1/2 = experiment: Western blot of pMEK1/2 in head lysate of 5 dpf embryos; conditions: 100 nM or 500 nM
# Description: FIG. 7: dmDf attenuates hyperactive MEK signaling in vivo. (a) Western blot analysis for the level of pMEK1/2 from the head lysate of 5 dpf zebrafish embryos. Depletion of kmt2d (lane 4) elevates the abundance of pMEK1/2 in comparison to control embryos (lane 1). […] (b) Summary of the relative levels of pMEK1/2 from three independent experiments. *p<0.05 (n=3). (c) kmt2d morphants were treated with serially increasing concentrations of dmDf. The embryos were scored for CE phenotypes as described earlier (n>25 for each concentration. (d) The distance between MK and CH cartilages was measured from the same embryos as in (c). *p<0.05; **p<0.01. Error bars show SEM (standard error of the mean).
# The phenotypic rescue of the zebrafish KS models by dmDf predicts a successful attenuation of hyperactive MEK signaling. To test this hypothesis directly, experiments were conducted that suppressed kmt2d, harvested and pooled protein from embryo heads (n=20/condition) and measured the abundance of phosphorylated (activated) MEK1/2 (pMEK1/2).
# Zebrafish larvae (5 dpf; n=20) were decapitated and heads were homogenized with RIPA buffer (50 mM NaCl, 1% NP40, 50 mM Tris-HCl pH 7.5, 0.1% SDS, 0.5% Na deoxycholate, 1 mM Na3VO4, and 1 mM NaF). […]
# [1] = system: kmt2d+/−×kmt2d+/− progeny; experiment: Jaw defect in stable kmt2d mutant intercross progeny; conditions: 100 mM dmDf, 5 dpf
# From the text: (§1) FIG. 12: Treatment with dmDf rescues the defects of stable kmt2d mutant. kmt2d+/− adults were in-crossed and the embryos were then collected at 1 dpf, 2 dpf and 5 dpf to assess dmDf efficacy. […] Error bars show SEM (standard error of the mean).
# (§2) Although the small molecule testing data in CRISPR F0 mosaic models are consistent with morphant phenotypes (and rescue), experiments recognized the necessity of testing the potential efficacy of dmDf in a stable genetic model that is a better genotypic proxy to human patients. […] In addition to examining proliferation of cells in the brain, experiments assessed whether neural differentiation is affected (see, Van Laarhoven, P. M. et al. Hum Mol Genet 24, 4443-53 (2015)).
# (§3) For convergence and extension (CE) phenotyping, embryos were scored as described (see, Leitch, C. C. et al. Nat Genet 40, 443-8 (2008)) at the 8-10 somite stage, and images were captured using an AZ100 microscope and NIS Elements software (Nikon). […] The distance between Meckel's (MK) and ceratohyal (CH) cartilages was measured on ventral bright field images with Image J (NIH). […] Fluorescence signal on embryo heads was imaged with the Nikon AZ100 microscope and DS-Qi1MC digital camera using […] Z-stacks to generate extended depth of focus images. Cell numbers were quantified using the ImageJ ICTN plugin (NIH). […]
# [2] = system: kmt2d+/−×kmt2d+/− progeny; experiment: Brain cell proliferation in stable kmt2d mutant intercross progeny; conditions: 100 mM dmDf, 2 dpf
# From the text: as §1, §2, §3
# kmt2d morphants = experiment: Brain cell proliferation (pHH3 immunostaining) in kmt2d morphants; conditions: 100 nM, 2 dpf, listed as dmDf
# From the text: Intellectual disability represents a major phenotype in KS, with some studies reporting almost 90% of patients to be affected (see, Wessels, M. W., et al. Clin Dysmorphol 11, 95-102 (2002)). […] Previous studies have shown that defects in proliferation in the developing zebrafish brain can be a proxy for neurodevelopmental and neurocognitive traits, especially in the context of microcephaly (see, Borck, G. et al. Genome Res 25, 609 (2015); Brooks, S. S. et al. Genetics 198, 723-33 (2014); O'Rawe, J. A. et al. Am J Hum Genet 97, 922-32 (2015); Wortmann, S. B. et al. Am J Hum Genet 96, 245-57 (2015)), a phenotype reported commonly in KS (see, Matsumoto, N. & Niikawa, N. Am J Med Genet C Semin Med Genet 117C, 57-65 (2003)).
# as §3
compound,measurement,setting,value
"CC(C)c1nc(-c2cccc(NS(=O)(=O)c3c(F)cccc3F)c2F)c(-c2ccnc(N)n2)s1 [Compound 8, desmethyl-Dabrafenib]",abundance of pMEK1/2,"pMEK1/2; kmt2d suppressed, 5 dpf heads, listed as dmDf",attenuates hyperactivation of MEK1/2; also recorded: restored the abundance of pMEK1/2 to levels indistinguishable from wild type embryos
same,abundance of pMEK1/2,pMEK1/2; uninjected embryos,neither concentration had an appreciable effect
same,mandibular length / jaw defect,[1],rescues significantly; also recorded: rescue of the mandibular length
same,number of proliferating cells in the brain,[2],increases significantly; also recorded: rescued
same,total number of proliferating (pHH3+) cells in brain,kmt2d morphants,significantly increases pHH3+ proliferating cells; also recorded: restored the total number of proliferating cells to wild type levels
